Experimental data reported in US20240293413A1, “COMPOUND AND METHOD FOR TREATING CHEMOTHERAPY-RELATED GASTROINTESTINAL SIDE EFFECTS” (ONQUALITY PHARMACEUTICALS CHINA LTD., priority 2021, published 2024).

How the values were obtained:
Assay type in all cases: in vivo
[1] = test system: diarrhea caused by the continuous administration of a chemotherapeutic agent in Balb/c mice; test: Examples 444-469 (Table 9): oral CDK inhibitor, diarrhea caused by continuous administration of a chemotherapeutic agent
How it was run: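 Balb/c mice (n=10 per group) received the CDK inhibitor intragastrically before a chemotherapeutic agent, against solvent and chemotherapy-only groups. Diarrhea was graded 0–3 daily. Relative remission rate is the percentage of inhibitor-treated mice whose grade fell below the chemotherapy group average.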

[2] = test system: diarrhea caused by a chemotherapeutic agent in Balb/c mice; test: Examples 382-405 (Table 7): various administration modes of the CDK inhibitor, relief of diarrhea caused by a chemotherapeutic agent
How it was run: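 Balb/c mice (10 per group) received a CDK inhibitor by oral gavage, intraperitoneal, intramuscular or topical (shaved abdomen) dosing, followed by a chemotherapeutic agent. Vehicle and chemotherapy-only groups served as controls. Diarrhea was graded daily.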

[3] = test system: Chemotherapeutic agent-caused diarrhea models of Balb/c mice; test: Examples 1-229 (Table 3): oral CDK inhibitor, relief of diarrhea caused by a chemotherapeutic agent

CN1CCN(c2ccc(Nc3ncc4cc5n(c4n3)C3(CCCCC3)CNC5=O)nc2)CC1 [Trilaciclib (G1T28), Trilaciclib]
Relative remission rate ([1]; Examples 452-455 (one value given; 2 h, 4 h, 6 h, 8 h before), Fluorouracil (5-Fu) intraperitoneal injection 70 mg/kg once a day, for 7 days, CDK inhibitor oral 125 mg/kg once a day, for 7 days, cycle 10 days): 10%
Relative remission rate ([1]; Examples 458-461 (one value given; 2 h, 4 h, 6 h, 8 h before), Capecitabine oral administration 1000 mg/kg (printed 100/0 wrapped) once a day, for 5 days, CDK inhibitor oral 100 mg/kg once a day, for 5 days, cycle 14 days): 50%
relieving effect on diarrhea ([1]; continuous administration of fluorouracil and capecitabine for 7 days or above): not significant
relieving effect on diarrhea ([1]; continuous administration of fluorouracil for less than 7 days): significant relieving effects
Relative remission rate of other administration mode ([2]; Example 395, Carboplatin (CBP) oral administration 200 mg/kg single, CDK inhibitor local administration 100 mg/kg single, 24 h before, cycle 10 days): 20%
Relative remission rate of oral administration ([2]; Example 395, Carboplatin (CBP) oral administration 200 mg/kg single, CDK inhibitor oral 100 mg/kg single, 24 h before, cycle 10 days): 60%
Relative remission rate of other administration mode ([2]; Example 402, Gemcitabine (GEM) intramuscular injection 120 mg/kg single, CDK inhibitor intramuscular injection 50 mg/kg single, 24 h before, cycle 8 days): 10%
Relative remission rate of oral administration ([2]; Example 402, Gemcitabine (GEM) intramuscular injection 120 mg/kg single, CDK inhibitor oral 50 mg/kg single, 24 h before, cycle 8 days): 40%
Relative remission rate of other administration mode ([2]; Example 404, Gemcitabine and carboplatin intraperitoneal injection 120 (G) 100 (C) mg/kg single, CDK inhibitor intramuscular injection 100 mg/kg single, 12 h before, cycle 8 days): 20%
Relative remission rate of oral administration ([2]; Example 404, Gemcitabine and carboplatin intraperitoneal injection 120 (G) 100 (C) mg/kg single, CDK inhibitor oral 150 mg/kg single, 12 h before, cycle 8 days): 60%
Relative remission rate of other administration mode ([2]; Example 405, Gemcitabine and carboplatin intraperitoneal injection 120 (G) 100 (C) mg/kg single, CDK inhibitor intramuscular injection 100 mg/kg single, 24 h before, cycle 8 days): 10%
Relative remission rate of oral administration ([2]; Example 405, Gemcitabine and carboplatin intraperitoneal injection 120 (G) 100 (C) mg/kg single, CDK inhibitor oral 150 mg/kg single, 24 h before, cycle 8 days): 50%
relief of diarrhea by oral, injection and local administration ([2]; diarrhea caused by docetaxel, carboplatin, gemcitabine, and gemcitabine plus carboplatin, under certain conditions, effect of oral administration most significant): can relieve diarrhea
Relative remission rate (%) ([3]; Example 49, Oxaliplatin intraperitoneal injection 20 mg/kg single, CDK inhibitor oral 100 mg/kg single 0.5 h before, cycle 8 days): 60%
Relative remission rate (%) ([3]; Example 50, Oxaliplatin intraperitoneal injection 20 mg/kg single, CDK inhibitor oral 100 mg/kg single 1 h before, cycle 8 days): 50%
Relative remission rate (%) ([3]; Example 51, Oxaliplatin intraperitoneal injection 20 mg/kg single, CDK inhibitor oral 100 mg/kg single 2 h before, cycle 8 days): 40%
Relative remission rate (%) ([3]; Example 52, Oxaliplatin intraperitoneal injection 20 mg/kg single, CDK inhibitor oral 100 mg/kg single 3 h before, cycle 8 days): 60%
Relative remission rate (%) ([3]; Example 53, Oxaliplatin intraperitoneal injection 20 mg/kg single, CDK inhibitor oral 100 mg/kg single 4 h before, cycle 8 days): 50%
Relative remission rate (%) ([3]; Example 54, Oxaliplatin intraperitoneal injection 20 mg/kg single, CDK inhibitor oral 100 mg/kg single 5 h before, cycle 8 days): 30%
Relative remission rate (%) ([3]; Example 55, Oxaliplatin intraperitoneal injection 20 mg/kg single, CDK inhibitor oral 100 mg/kg single 6 h before, cycle 8 days): 80%
Relative remission rate (%) ([3]; Example 56, Oxaliplatin intraperitoneal injection 20 mg/kg single, CDK inhibitor oral 100 mg/kg single 7 h before, cycle 8 days): 60%
Relative remission rate (%) ([3]; Example 57, Oxaliplatin intraperitoneal injection 20 mg/kg single, CDK inhibitor oral 100 mg/kg single 8 h before, cycle 8 days): 60%
Relative remission rate (%) ([3]; Example 58, Oxaliplatin intraperitoneal injection 20 mg/kg single, CDK inhibitor oral 100 mg/kg single 9 h before, cycle 8 days): 80%
Relative remission rate (%) ([3]; Example 59, Oxaliplatin intraperitoneal injection 20 mg/kg single, CDK inhibitor oral 100 mg/kg single 10 h before, cycle 8 days): 70%
Relative remission rate (%) ([3]; Example 60, Oxaliplatin intraperitoneal injection 20 mg/kg single, CDK inhibitor oral 100 mg/kg single 11 h before, cycle 8 days): 70%
Relative remission rate (%) ([3]; Example 61, Oxaliplatin intraperitoneal injection 20 mg/kg single, CDK inhibitor oral 100 mg/kg single 12 h before, cycle 8 days): 50%
Relative remission rate (%) ([3]; Example 62, Oxaliplatin intraperitoneal injection 20 mg/kg single, CDK inhibitor oral 100 mg/kg single 14 h before, cycle 8 days): 60%
Relative remission rate (%) ([3]; Example 63, Oxaliplatin intraperitoneal injection 20 mg/kg single, CDK inhibitor oral 100 mg/kg single 16 h before, cycle 8 days): 80%
Relative remission rate (%) ([3]; Example 64, Oxaliplatin intraperitoneal injection 20 mg/kg single, CDK inhibitor oral 100 mg/kg single 18 h before, cycle 8 days): 80%
Relative remission rate (%) ([3]; Example 65, Oxaliplatin intraperitoneal injection 20 mg/kg single, CDK inhibitor oral 100 mg/kg single 20 h before, cycle 8 days): 70%
Relative remission rate (%) ([3]; Example 66, Oxaliplatin intraperitoneal injection 20 mg/kg single, CDK inhibitor oral 100 mg/kg single 22 h before, cycle 8 days): 50%
Relative remission rate (%) ([3]; Example 67, Oxaliplatin intraperitoneal injection 20 mg/kg single, CDK inhibitor oral 100 mg/kg single 24 h before, cycle 8 days): 50%
Relative remission rate (%) ([3]; Example 68, Oxaliplatin intraperitoneal injection 20 mg/kg single, CDK inhibitor oral 100 mg/kg single 48 h before, cycle 8 days): 0%
Relative remission rate (%) ([3]; Example 127, Irinotecan (CPT-11) intramuscular injection 240 mg/kg single, CDK inhibitor oral 50 mg/kg single 1 h before, cycle 7 days): 70%
Relative remission rate (%) ([3]; Example 170, Gemcitabine (GEM) intraperitoneal injection 120 mg/kg single, CDK inhibitor oral 60 mg/kg single 0.5 h before, cycle 8 days): 50%
Relative remission rate (%) ([3]; Example 171, Gemcitabine (GEM) intraperitoneal injection 120 mg/kg single, CDK inhibitor oral 60 mg/kg single 1 h before, cycle 8 days): 50%
Relative remission rate (%) ([3]; Example 172, Gemcitabine (GEM) intraperitoneal injection 120 mg/kg single, CDK inhibitor oral 60 mg/kg single 2 h before, cycle 8 days): 40%
Relative remission rate (%) ([3]; Example 173, Gemcitabine (GEM) intraperitoneal injection 120 mg/kg single, CDK inhibitor oral 60 mg/kg single 4 h before, cycle 8 days): 60%
Relative remission rate (%) ([3]; Example 174, Gemcitabine (GEM) intraperitoneal injection 120 mg/kg single, CDK inhibitor oral 60 mg/kg single 6 h before, cycle 8 days): 50%
Relative remission rate (%) ([3]; Example 175, Gemcitabine (GEM) intraperitoneal injection 120 mg/kg single, CDK inhibitor oral 60 mg/kg single 8 h before, cycle 8 days): 50%
Relative remission rate (%) ([3]; Example 176, Gemcitabine (GEM) intraperitoneal injection 120 mg/kg single, CDK inhibitor oral 60 mg/kg single 10 h before, cycle 8 days): 50%
Relative remission rate (%) ([3]; Example 177, Gemcitabine (GEM) intraperitoneal injection 120 mg/kg single, CDK inhibitor oral 60 mg/kg single 12 h before, cycle 8 days): 40%
Relative remission rate (%) ([3]; Example 178, Gemcitabine (GEM) intraperitoneal injection 120 mg/kg single, CDK inhibitor oral 60 mg/kg single 14 h before, cycle 8 days): 60%
Relative remission rate (%) ([3]; Example 193, Gemcitabine (GEM) oral administration 300 mg/kg single, CDK inhibitor oral 200 mg/kg single, 2 h before, 8 days): 60%
Relative remission rate (%) ([3]; Example 227, Topotecan intravenous injection 20 mg/kg single, CDK inhibitor oral 100 mg/kg single, 0.5 h before, 14 days): 70%
